Experiments:
[1] = Solubility testing (dissolution time) of purified 4-hydroxyacetophenone (0.5 wt.-%) in cold water; assay type: physicochemical; settings: for Time needed until purified 4-HAP is fully dissolved: 0.5 wt.-% 4-HAP, 99.50 wt.-% water, solvent at 17.5-18.5° C., stirred at 500 rpm at 20-21° C.
[2] = Solubility testing (dissolution time) of purified 4-hydroxyacetophenone (0.5 wt.-%) in cold 1,2-pentanediol (5 wt.-%) in water; assay type: physicochemical; settings: for Time needed until purified 4-HAP is fully dissolved: 0.5 wt.-% 4-HAP, 5 wt.-% 1,2-pentanediol, 94.50 wt.-% water, solvent at 17.5-18.5° C., stirred at 500 rpm at 20-21° C.
[3] = Solubility testing (dissolution time) of purified 4-hydroxyacetophenone (0.5 wt.-%) in cold 1,2-pentanediol (3 wt.-%) and glycerin (5 wt.-%) in water; assay type: physicochemical; settings: for Time needed until purified 4-HAP is fully dissolved: 0.5 wt.-% 4-HAP, 3 wt.-% 1,2-pentanediol, 5 wt.-% glycerin (99.5%), 91.50 wt.-% water, solvent at 17.5-18.5° C., stirred at 500 rpm at 20-21° C.
Aspergillus brasiliensis = settings: when used in cosmetics; Daily Chemical Industry: 2015, 45:269; cited from earlier work
Pseudomonas aeruginosa = settings: when used in cosmetics; Daily Chemical Industry: 2015, 45:269; cited from earlier work

| SMILES | Time needed until purified 4-HAP is fully dissolved [1] [min] | Time needed until purified 4-HAP is fully dissolved [2] [min] | Time needed until purified 4-HAP is fully dissolved [3] [min] | dissolution time in cold water (in words, compared with the other samples) [1] | dissolution time in cold 1,2-pentanediol (3 wt.-%) and glycerin (5 wt.-%) in water (in words, compared with the other samples) [3] | dissolution time in cold 1,2-pentanediol (5 wt.-%) in water (in words, compared with the other samples) ([2]; cold 1,2-pentanediol (5 wt.-%) in water) | ability to kill Aspergillus brasiliensis (Aspergillus brasiliensis) | ability to restrain Pseudomonas aeruginosa (Pseudomonas aeruginosa) |
| --- | --- | --- | --- | --- | --- | --- | --- | --- |
| CC(=O)c1ccc(O)cc1 [Example 7, 4-hydroxyacetophenone] | 51 | 36 | 33 | – | – | – | – | – |
| CC(=O)c1ccc(O)cc1 [Example 8, 4-hydroxyacetophenone] | 44 | 29 | 27 | – | – | – | – | – |
| CC(=O)c1ccc(O)cc1 [Example 1b, 4-hydroxyacetophenone] | 22 | – | 19 | by far the shortest dissolution time | by far the shortest dissolution time | – | – | – |
| CC(=O)c1ccc(O)cc1 [Example 9, 4-hydroxyacetophenone] | 29 | 17 | 21 | – | – | – | – | – |
| CC(=O)c1ccc(O)cc1 [Example 2, 4-hydroxyacetophenone] | 115 | 56 | 53 | – | – | – | – | – |
| CC(=O)c1ccc(O)cc1 [Example 4, 4-hydroxyacetophenone] | 41 | 33 | 24 | – | – | – | – | – |
| CC(=O)c1ccc(O)cc1 [Example 10, 4-hydroxyacetophenone] | 67 | – | 42 | – | – | – | – | – |
| CC(=O)c1ccc(O)cc1 [Example 6, 4-hydroxyacetophenone] | – | 35 | 28 | – | – | – | – | – |
| CC(=O)c1ccc(O)cc1 [Example 1a, 4-hydroxyacetophenone] | 24 | 12 | 15 | by far the shortest dissolution time | by far the shortest dissolution time | by far the shortest dissolution time | – | – |
| CC(=O)c1ccc(O)cc1 [4-hydroxyacetophenone] | – | – | – | – | – | – | great ability to kill | a certain ability to restrain |
| CC(=O)c1ccc(O)cc1 [Example 5, 4-hydroxyacetophenone] | 35 | 26 | 22 | – | – | – | – | – |
| CC(=O)c1ccc(O)cc1 [Example 3, 4-hydroxyacetophenone] | 35 | 22 | 30 | – | – | – | – | – |
